Experimental data: patent US10046050B2, “Targeting immunotherapy for amyloidosis” (UNIVERSITY OF TENNESSEE RESEARCH FOUNDATION, priority 2014, dated 2018)
pKd: −log10 of the molar value. Where two headings read alike, the source gives them in different places.

Key:
[1] = system: mAb clones 4, 5, 12, and 13; test: ELISA capture of negative control biotinylated peptides by plate-adsorbed mAb clones; format: binding, murine; conditions: 100 ng/well
Method: More particularly, 96-well ELISA microplates were coated overnight with the indicated mAbs (500 ng/well), the wells were blocked with PBS/BSA solution before addition of biotinylated p5+14 peptide (100 ng/well). Biotinylated peptides, p5R and p31G (aka p5G) were used as a negative control. Following a wash step, detection of captured peptide was achieved by addition of europium-conjugated streptavidin as described above.

[2] = target: T1, human transthyretin (TTR) amyloid-laden tissue (Homo sapiens, UniProt P02766); test: Pre-targeting immunohistochemistry on ATTR-laden tissue sections; format: binding
T1 construct: from tissue
Method: The pre-targeting efficacy of peptide p5+14 in conjunction with mAb clones 4, 5, 12, or 13 was further evaluated using human ATTR-laden formalin-fixed paraffin embedded tissue sections. More particularly, six micrometer-thick sections, cut from formalin-fixed, paraffin embedded human transthyretin (TTR) amyloid-laden tissue, were subjected to antigen retrieval by incubation with CitraPlus (BioGenex, San Ramon, Calif.) for 30 min at 90° C. Peptide p5+14 was added to the tissue at ˜3 μg/mL (30× molar excess over mAb) and incubated overnight at 4° C. Unbound reagent was removed by washing in PBST for 30 min. Tissues (with or without p5+14) were immunostained with a 3 μg/mL solution of biotinylated anti-peptide mAb (clones 4, 5, 12, or 13). Slides were developed by addition of streptavidin-HRP (Vectastain Elite ABC kit, Vector Labs) followed by 3,3′-diaminobezidene (Vector Labs).
By way of positive control, a biotinylated-p5+14 peptide (without mAb) was used to directly stain TTR amyloid in this tissue (red arrows, below), as described above.
To confirm the presence and distribution of amyloid in the tissue a consecutive slide was stained with Congo red. Briefly, tissues were incubated in Congo red solution (0.8% w/v Congo red, 0.2% KOH w/v in 80% ethanol) for 1 h at RT. Sections were then washed in water and counterstained by suspending in Mayer's hematoxylin for 2 min. […]

[3] = system: synthetic and naturally-occurring amyloid samples; test: Pull down assay of ^125I-labeled peptides; format: binding
Method: To evaluate the binding of p66 and p5+14 to synthetic and naturally-occurring amyloid, peptides p66 or p5+14 were radiolabeled with iodine-125 (I-125, ^125I) using oxidation with chloramine T (1 mg/ml in water freshly made. Free 1-125 was removed from the reaction mixture by size exclusion chromatography using a Sephadex G-25 solid phase and a 0.1% (w/v) gelatin in PBS mobile phase. Fractions of ˜250 μl were collected and the radioactivity in each measured using a gamma counter (Packard Cobra II auto-gamma counter). Peptide fractions with peak radioactivity were pooled and used for the “pull-down” assays.
For the pull down assay, ^125I-labeled peptide binding to murine: (m) AA and wild type (WT) liver homogenates (25 μl); rVλ6Wil (AL), Aβ(1-40) and islet amyloid polypeptide (IAPP) synthetic fibrils (25 μg), and; transthyretin-associated (ATTR), ALκ4-Cab and ALλ1-Ship human amyloid extracts (50 μg). The ^125I-peptides were prepared in PBST (0.15 M NaCl) or PBST with 1 M NaCl. Ten μl (˜5 ng, ˜100,000 counts per min [cpm]) of the ^125I-peptide solution was added to each test sample in a 200 μl volume. The reaction mixtures were rotated for 1 h at RT, then centrifuged twice at 16,000×g for 10 min. After each step the supernatants were removed and collected in test tubes. The pellets, obtained following the second spin were resuspended in PBST. The radioactivity in both the supernatant and pellet samples were measured using a Packard Cobra II auto-gamma counter. The bound peptide, expressed as % total was calculated according to: Bound peptide (% total)=(Pellet cpm)/(Pellet cpm+Supernatant cpm)

AA amyloid = target: T2, AA amyloid (Mus musculus, UniProt P05367); test: In vivo pre-targeting of ^125I-11-1F4 to systemic AA amyloid; design: species or system mice; conditions: 24 h post injection of 11-1F4 mAb; peptide given 24 h before mAb
T2 construct: from tissue; host or cells: organs of living H2-L^d-huIL-6 Tg Balb/c mice after AEF injection
T2 sequence (P05367 20-94 limits assumed): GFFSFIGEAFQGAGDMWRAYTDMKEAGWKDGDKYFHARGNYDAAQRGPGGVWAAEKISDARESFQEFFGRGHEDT
Method: Systemic visceral AA amyloidosis was induced in H2-L^d-huIL-6 Tg Balb/c transgenic mice that constitutively express the human interleukin-6 transgene, by iv injection of 10 μg of purified, splenic AA amyloid (amyloid enhancing factor; AEF) in 100 μL of sterile phosphate-buffered saline (PBS). Peptide p66 pre-targeting of ^125I-11-1F4 was evaluated in mice at 3-4 wk post AEF injection when amyloid load was modest.
Three cohorts of 3 mice, each received ˜400 μg of unlabeled peptide p66, and a second group of 3 cohorts were given peptide p5+14 as a control. Twenty-four hours after the peptide injection all mice were administered ˜150 μCi (˜20 μg) of ^125I-11-1F4 IV in the lateral tail vein. One group of p66 mice (n=3) and one group of p5+14 control mice (n=3) were euthanized at 24, 48 and 72 h post injection of 11-1F4 mAb and the organs harvested at necropsy for fixation, followed by microautoradiographic and immunohistochemical analyses.
For autoradiography, 6-μm-thick sections were cut from formalin-fixed, paraffin-embedded blocks, containing tissues from mice that had received […]. The sections were placed on Plus microscope slides (Fisher Scientific), dipped in NTB-2 emulsion (Eastman Kodak), stored in the dark, and developed after a 4 day exposure. Each section was counterstained with hematoxylin and eosin.
Formalin-fixed paraffin embedded tissue sections, from mice treated with p66 peptope or peptide p5+14 were subjected to antigen retrieval using citrate buffer (pH 6; Dako) 30 min at 90° C. The tissue was then blocked with hydrogen peroxide, casein, and avidin and biotin, per manufacturer's instructions. The biotinylated peptide-reactive mAb (clone 12-3 [described above]) was then added (1.6 μg/mL in PBS) an the samples incubated for 2 h at RT, O/N at 4° C., followed by another 2 h period at RT. […]
The presence of macrophages was detected by staining with mAb Iba-1 (1:8000 diln) followed by addition of biotinylated rabbit anti-mouse secondary reagent (Vector Rabbit Elite kit). […]

mAb 7D8 = test: Surface plasmon resonance of mAb 7D8 binding to amino-coupled peptopes; conditions: 7D8 2.7 nM; for pKd: read-out: KD
Method: Analyses were performed using a BIAcore X surface plasmon resonance instrument (GE Healthcare) and all reagents were obtained from GE Healthcare. For chip preparation, the peptides were attached to CM-5 chips using the amino-coupling method supplied with the instrument software. Briefly, chips were activated by injection (35 μL) of a mixture of ECD/NHS at a flow rate of 5 μL/min. Immediately thereafter, 35 μL of the test peptide (peptope p75, p76, p77, or p78), diluted to 1 μg/mL in NaOAc buffer, pH 5.5, was injected. After peptide coupling, the remaining active groups on the chip were blocked by injection of 35 μL of 1 M ethanolamine-HCl pH 8.5. Test peptides p75, p76, p77, or p78 were coupled to the Fc-1 channel and peptide p5, which served as a control, was coupled to the Fc-2 channel. A sensorgram was initiated on each chip in HBS-EP buffer at 10 μL per min. An initial regeneration step consisting of a 20 μL injection of pH 2.5 glycine buffer was performed and the baseline allowed to equilibrate. Antibody 7D8 was diluted to a stock of 10 μg/mL in HBS-EP buffer which was further diluted to a 0.4 μg/mL (˜2.7 nM) working dilution immediately before injection. The antibody was injected (50 μL) and the data collected for 200 seconds using a delayed wash cycle. The chip was subjected to a regeneration step before the next test injection. Binding data were extracted from the sensorgram, aligned, and analyzed using the BIAevaluation software by fitting to the following binding models (i) Langmuir, (ii) Langmuir with mass transfer, and (iii) Interaction of a bivalent analyte [A+B→AB; AB+B→AB2].

| Substance | Rmax (RU) (mAb 7D8; Bivalent Analyte) | ka1 (mAb 7D8; Bivalent Analyte) | ka2 (1/RUs) (mAb 7D8; Bivalent Analyte) | kd1 (mAb 7D8; Bivalent Analyte) | kd2 (mAb 7D8; Bivalent Analyte) | KA (mAb 7D8; Langmuir with Mass Transfer) | Req (RU) (mAb 7D8; Langmuir with Mass Transfer) | Rmax (RU) (mAb 7D8; Langmuir with Mass Transfer) | ka (mAb 7D8; Langmuir with Mass Transfer) | kd (mAb 7D8; Langmuir with Mass Transfer) | kobs (mAb 7D8; Langmuir with Mass Transfer) | kt (RU/(M*s)) (mAb 7D8; Langmuir with Mass Transfer) | pKd (mAb 7D8; Langmuir with Mass Transfer) | KA (mAb 7D8; Langmuir) | Req (RU) (mAb 7D8; Langmuir) | Rmax (RU) (mAb 7D8; Langmuir) | ka (mAb 7D8; Langmuir) | kd (mAb 7D8; Langmuir) | kobs (mAb 7D8; Langmuir) | pKd (mAb 7D8; Langmuir) | also measured |
| --- | --- | --- | --- | --- | --- | --- | --- | --- | --- | --- | --- | --- | --- | --- | --- | --- | --- | --- | --- | --- | --- |
| GAQGAQAGQAGQAQGAQGAQAGQAGQ (GAQGAQAGQAGQAQGAQGAQAGQAGQ; Peptide p5G) |  |  |  |  |  |  |  |  |  |  |  |  |  |  |  |  |  |  |  |  | capture of biotinylated peptide by adsorbed mAb clones [1]: not captured |
| KAQKAQAKQAKQAQKAQKAQAKQAKQAQKAQKAQAKQAKQ (KAQKAQAKQAKQAQKAQKAQAKQAKQAQKAQKAQAKQAKQ; Peptide p5+14) |  |  |  |  |  |  |  |  |  |  |  |  |  |  |  |  |  |  |  |  | staining of ATTR amyloid by directly biotinylated peptide (no mAb) ([2]; compared with Congo red): co-localizes with amyloid deposits; staining of ATTR amyloid, non-biotinylated peptide pre-targeting then biotinylated anti-peptide mAb ([2]; peptide ˜3 μg/mL, mAb clones 4, 5, 12, or 13 at 3 μg/mL): the amyloid was readily visualized; binding of ^125I-peptide to amyloid samples ([3]; 0.15 M NaCl): bound equally well; binding of ^125I-peptide to amyloid samples ([3]; 1.0 M NaCl): bound equally well; co-localization of ^125I-11-1F4 with AA amyloid after peptide pre-targeting (AA amyloid): little evidence of ^125I-11-1F4 co-localized with the amyloid |
| KAQKAQAKQAKQAQKAQKAQAKQAKQGPGHEDT [p77, KAQKAQAKQAKQAQKAQKAQAKQAKQGPGHEDT] | 5.43E+03 RU | 44600 M⁻¹ s⁻¹ | 3.76E−05 1/RUs | 0.0295 s⁻¹ | 0.0224 s⁻¹ | 3e+08 M⁻¹ | 192 RU | 429 RU | 1.96e+08 M⁻¹ s⁻¹ | 0.653 s⁻¹ | 1.18 s⁻¹ | 4.57E+08 RU/(M*s) | 8.48 | 1.04e+07 M⁻¹ | 223 RU | 8.16E+03 RU | 51900 M⁻¹ s⁻¹ | 0.00498 s⁻¹ | 0.00512 s⁻¹ | 7.02 |  |
| RAQRAQARQARQAQRAQRAQARQARQ (RAQRAQARQARQAQRAQRAQARQARQ; Peptide p5R) |  |  |  |  |  |  |  |  |  |  |  |  |  |  |  |  |  |  |  |  | capture of biotinylated peptide by adsorbed mAb clones [1]: not captured |

More lines, main results first:

| Rmax (RU) (mAb 7D8; Bivalent Analyte) | ka1 (mAb 7D8; Bivalent Analyte) | ka2 (1/RUs) (mAb 7D8; Bivalent Analyte) | kd1 (mAb 7D8; Bivalent Analyte) | kd2 (mAb 7D8; Bivalent Analyte) | KA (mAb 7D8; Langmuir with Mass Transfer) | Req (RU) (mAb 7D8; Langmuir with Mass Transfer) | Rmax (RU) (mAb 7D8; Langmuir with Mass Transfer) | ka (mAb 7D8; Langmuir with Mass Transfer) | kd (mAb 7D8; Langmuir with Mass Transfer) | kobs (mAb 7D8; Langmuir with Mass Transfer) | kt (RU/(M*s)) (mAb 7D8; Langmuir with Mass Transfer) | pKd (mAb 7D8; Langmuir with Mass Transfer) | KA (mAb 7D8; Langmuir) | Req (RU) (mAb 7D8; Langmuir) | Rmax (RU) (mAb 7D8; Langmuir) | ka (mAb 7D8; Langmuir) | kd (mAb 7D8; Langmuir) | kobs (mAb 7D8; Langmuir) | pKd (mAb 7D8; Langmuir) | Substance | also measured |
| --- | --- | --- | --- | --- | --- | --- | --- | --- | --- | --- | --- | --- | --- | --- | --- | --- | --- | --- | --- | --- | --- |
| 861 RU | 609000 M⁻¹ s⁻¹ | 2.38E−03 1/RUs | 0.0736 s⁻¹ | 0.0774 s⁻¹ | 6.33e+08 M⁻¹ | 191 RU | 302 RU | 8.96e+06 M⁻¹ s⁻¹ | 0.0137 s⁻¹ | 0.0372 s⁻¹ | 1.43E+09 RU/(M*s) | 8.80 | 4.43e+08 M⁻¹ | 191 RU | 351 RU | 2.95e+06 M⁻¹ s⁻¹ | 0.00667 s⁻¹ | 0.0146 s⁻¹ | 8.65 | KAQKAQAKQAKQAQKAQKAQAKQAKQGGGHEDT [p76, KAQKAQAKQAKQAQKAQKAQAKQAKQGGGHEDT] |  |
| 9.16E+03 RU | 63700 M⁻¹ s⁻¹ | 1.10E−07 1/RUs | 0.00972 s⁻¹ | 2.63e-05 s⁻¹ | 6.85e+08 M⁻¹ | 326 RU | 502 RU | 1.29e+07 M⁻¹ s⁻¹ | 0.0188 s⁻¹ | 0.0536 s⁻¹ | 1.65E+09 RU/(M*s) | 8.84 | 4.05e+08 M⁻¹ | 331 RU | 633 RU | 2.42e+06 M⁻¹ s⁻¹ | 0.00598 s⁻¹ | 0.0125 s⁻¹ | 8.61 | KAQKAQAKQAKQAQKAQKAQAKQAKQVTVHEDT [p78, KAQKAQAKQAKQAQKAQKAQAKQAKQVTVHEDT] |  |
